Test results taken from US6514954B1, “Pesticidal compositions” (priority 1997, dated 2003).

Tested on: Myzus persicae
Assay: Example B6: action against Myzus persicae (leaf circle bioassay, sprayed Capsicum plants)
Type: in vivo
Details: 96 h, read-out: Action % (mortality of nymphs)
Excerpt: A synergistic effect is always present if the action EA of the combination of an active compound of the formula (A) with one of the active compounds (I) to (XXXI) is greater than the sum of the action of the active compounds applied individually:
However, the pesticidal action EA to be expected for a given combination of two pesticides can also be calculated as follows (cf. COLBY, S. R., “Calculating synergistic and antagonistic response of herbicide combinations”, Weeds 15, Pages 20-22, 1967): [formula]
X=Percent mortality on treatment with the compound of the formula (A) at a rate of application of p kg per hectare compared with the untreated control (=0%).
Y=Percent mortality on treatment with a compound (I) to (XXXI) at a rate of application of q kg per hectare compared with the untreated control.
EA=Expected pesticidal action (percent mortality compared with the untreated control) after treatment with the compound of the formula (A) and a compound (I) to (XXXI) at a rate of application of p+q kg of active compound per hectare.
If the action actually observed is greater than the expected value EA, synergism exists.
Action Against Myzus persicae
Capsicum plants (Capsicum annuum L.) 6 weeks old are sprayed with an aqueous emulsion spray liquor which comprises the individual compounds and mixtures according to the following table. The plants were placed in a greenhouse until determination of the activity.
The activity against Myzus persicae was measured in bioassays. 2-4 hours after application, circles of leaf are stamped out, placed with the upper side down on agar in Petri dishes and infested with an M. persicae mixed population consisting of 40-50 non-synchronous individuals. A total of 9 circles of leaf per concentration are used. The Petri dishes are covered with a cotton wool filter, closed with a plastic lid and placed in a climatically controlled chamber for plants. One day after infestation, the circles of leaf are cleaned of adults, skins and nymphs, so that only 25-40 nymphs laid overnight remain per circle of leaf. Four days after infestation, the mortality is determined by counting the dead and living nymphs. The tests are carried out 3 times. The results shown in the table are the average values of the tests.

SMILES: CN1COCN(Cc2cnc(Cl)s2)C1=N[N+](=O)[O-] [A.5, 5-(2-chlorothiazol-5-ylmethyl)-3-methyl-4-nitroimino-perhydro-1,3,5-oxadiazine]
- mortality at 0.1 ppm (Conc. 0.1 ppm, four days after infestation, average of 3 tests): 5.9%
- mortality at 0.2 ppm (Conc. 0.2 ppm, four days after infestation, average of 3 tests): 35%

SMILES: CC1=NNC(=O)N(N=Cc2cccnc2)C1 [Pymetrozine, 2,3,4,5-tetrahydro-3-oxo-4-[(pyridin-3-yl)-methyleneamino]-6-methyl-1,2,4-triazine]
- mortality at 0.3 ppm (Conc. 0.3 ppm, four days after infestation, average of 3 tests): 38.4%

SMILES: CC1(C)C(C=C(Cl)Cl)C1C(=O)OC(C#N)c1cccc(Oc2ccccc2)c1 (racemic) [Cypermethrin high-cis, (RS)-α-cyano-3-phenoxybenzyl (1RS)-cis-trans-3-(2,2-dichlorvinyl)-1,1-dimethylcyclo-propanecarboxylate]
- mortality at 600 ppm (Conc. 600 ppm, four days after infestation, average of 3 tests): 8.2%

SMILES: CCCSP(=O)(OCC)Oc1ccc(Br)cc1Cl (centres unmarked) [Profenofos, O-4-bromo-2-chlorophenyl O-ethyl S-propyl phosphorothioate]
- mortality at 35 ppm: 12.3%
